Source: patent US20120082976A1, “METHOD OF SCREENING FOR INSULIN SECRETION-POTENTIATING AGENTS” (KOBE UNIVERSITY, priority 2009, published 2012)

Key:
Rap1 [1] = assay: GTP-RAP1 pull-down assay in Epac2-lacking pancreatic beta-cells transformed with mouse Epac2 expression vector; assay type: cell-based
Procedure: (§1) Pancreatic beta-cells lacking Epac2 were obtained according to the technique disclosed in Shibasaki T. et al. Proc. Natl. Acad. Sci. USA 104, 19333-9 (2007), by isolating from the mice which were bred after crossing Epac2-lacking mice with IT6 mice, in which SV40 large T […] is expressed under the control of human insulin gene promoter. The method for preparing IT6 mice is described in Miyazaki J, et al., Endocrinology, 127, 126-132 (1990). Further, MIN6 cells were prepared by the technique disclosed in Japanese patent application publication No. 2002-125661.
(§2) GTP-RAP1 pull-down assay was performed according to the method described in Shibasaki T. et al. Proc. Natl. Acad. Sci. USA 104, 19333-9 (2007). Namely, MIN6 cells which had been let stand for 30 minutes in HEPES-KRB buffer in advance were cultured for further 15 minutes in HEPES-KRB buffer containing an agent of interest and 2.8 mM glucose. Then, the cells were fractured, and to the cell lysate thus obtained was added glutathione resin which carried GST-Ra1GDS-RID bound to it (SIGMA). After 90 minutes of incubation at 4 deg C., the resin was separated by centrifugation, washed several times with HEPES-KRB buffer, and subjected to SDS-PAGE gel electrophoresis. After the SDS-PAGE gel electrophoresis, Western blotting was carried to transfer the protein onto PVDF membrane, and Rap1 transferred on the membrane was detected with anti-Rap1 antibody (Santa Cruz Biotechnology, Inc., USA).

[2] = target: T1, fluorescent-labeled mouse Epac2 (Mus musculus, UniProt Q9EQZ6); assay: FRET dynamic analysis of fluorescent-labeled mouse Epac2 in COS-1 cells; assay type: cell-based; design: expressed in transfected cells; host or cells: COS-1 cells (A1); details: COS-1 cells that did not express SUR1, in the presence of SU agent
T1 sequence (Q9EQZ6 1-1011): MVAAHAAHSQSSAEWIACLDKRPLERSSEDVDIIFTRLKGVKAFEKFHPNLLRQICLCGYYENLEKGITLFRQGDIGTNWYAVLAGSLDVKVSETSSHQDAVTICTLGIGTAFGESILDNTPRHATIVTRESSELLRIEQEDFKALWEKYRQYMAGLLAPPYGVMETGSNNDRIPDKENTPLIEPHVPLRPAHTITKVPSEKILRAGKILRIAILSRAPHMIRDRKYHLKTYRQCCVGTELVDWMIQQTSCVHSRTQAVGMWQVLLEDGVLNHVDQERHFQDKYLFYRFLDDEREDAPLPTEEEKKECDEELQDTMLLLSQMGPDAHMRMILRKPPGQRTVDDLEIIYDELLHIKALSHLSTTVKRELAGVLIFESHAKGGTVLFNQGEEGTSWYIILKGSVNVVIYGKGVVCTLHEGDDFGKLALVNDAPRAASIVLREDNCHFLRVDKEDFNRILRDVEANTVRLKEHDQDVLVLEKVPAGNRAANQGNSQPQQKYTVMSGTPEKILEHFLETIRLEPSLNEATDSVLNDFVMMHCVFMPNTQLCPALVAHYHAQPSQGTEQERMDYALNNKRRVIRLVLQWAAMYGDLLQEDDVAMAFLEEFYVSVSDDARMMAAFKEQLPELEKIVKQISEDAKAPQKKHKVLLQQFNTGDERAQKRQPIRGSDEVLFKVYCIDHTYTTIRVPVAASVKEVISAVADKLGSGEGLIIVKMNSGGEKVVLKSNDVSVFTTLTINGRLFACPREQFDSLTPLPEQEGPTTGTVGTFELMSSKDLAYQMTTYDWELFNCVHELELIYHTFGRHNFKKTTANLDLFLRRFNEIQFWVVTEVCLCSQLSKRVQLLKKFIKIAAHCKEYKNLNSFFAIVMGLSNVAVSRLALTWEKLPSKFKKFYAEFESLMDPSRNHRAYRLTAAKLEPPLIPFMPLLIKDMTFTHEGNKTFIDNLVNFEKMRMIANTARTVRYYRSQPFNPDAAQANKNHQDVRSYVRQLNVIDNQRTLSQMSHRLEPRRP
Procedure: Two days before the day for measurement, the cells were transformed with fluorescent-labeled mouse Epac2 expression vector and then cultured. On the day before the day for measurement, the cells were transferred onto the glass culture dishes of 25 mm in diameter, and culture was continued. About 48 hours after the transformation, the culture medium was replaced with HEPES-KRB buffer (HEPES buffer containing 133.4 mM NaCl, 4.7 mM KCl, 1.2 mM KH2PO4, 1.2 mM MgSO4, 2.5 mM CaCl2, 5.0 mM NaHCO3, 2.8 mM glucose, and 0.2% BSA (pH 7.4)). The cells were observed through a confocal microscope (FV1000, Olympus Corporation) equipped with the UPlanSApo objective lens (100*oil/1.40 NA) to set the focus of the lens on the cells, and excitation light with the wavelength of 440 nm was irradiated using 440 nm LD laser (FV5-LDPSU, Olympus Corporation) at the power of 0.5%. Fluorescent light emitted from thus excited fluorescent-labeled mouse Epac2 was observed through two fluorescence filters, 480DF30 (for 480 nm light) and 535DF25 (for 535 nm light) as dual images of the fluorescent light every 5 seconds for dynamic analysis of the emitted fluorescent light. The results of the dynamic analysis, after first calculating the ratio R in intensity of fluorescence at 535 nm to 480 nm at each measurement (ratio of intensity at 535 nm/intensity at 480 nm), were expressed in the value which was derived by dividing the ratio by the initial value R0 (ratio of intensity at 535 nm/intensity at 480 nm before addition of an agent), i.e., R/R0. All the observation was carried out at room temperature.

Rap1 [3] = assay: GTP-RAP1 pull-down assay in MIN6 cells; assay type: cell-based
Procedure: as §2
Epac2 has the GEF activity and activates Rap1 by converting it to GTP-bound Rap1 through its binding to […]. This reaction constitute part of signal transmission for insulin secretion in beta-cells. Thus, it was examined whether or not Rap1 is activated with SU agents, using MIN6 cells, which originate from beta-cells. Activation of Rap1 was measured by determining GTP-bound Rap1, using GTP-RAP1 pull-down assay.

Rap1 [4] = assay: GTP-RAP1 pull-down assay in Epac2-lacking pancreatic beta-cells; assay type: cell-based, mouse
Procedure: as §1, §2
Then, using Epac2-lacking pancreatic beta-cells, examination was performed as to whether Rap1 was activated by SU agents. Activation of Rap1 was measured by determining the amount of GTP-bound Rap1 using GTP-RAP1 pull-down assay.

[5] = target: T1, fluorescent-labeled mouse Epac2; assay: FRET dynamic analysis of fluorescent-labeled mouse Epac2 in MIN6 cells; assay type: cell-based; design: expressed in transfected cells; host or cells: MIN6 cells (A3); details: in the presence of SU agent
Procedure: All the observation was carried out at room temperature.

mouse Epac2 = target: T2, mouse Epac2 (Mus musculus, UniProt Q9EQZ6); assay: Sulfonylurea binding experiment with tritium-labeled glibenclamide in COS-1 cells transformed with mouse Epac2 expression vector
T2 construct: expressed in transfected cells; host or cells: COS-1 cells
T2 sequence (Q9EQZ6 1-1011): T1 sequence (Q9EQZ6 1-1011)
Excerpt: COS1 cells were transformed with mouse Epac2 expression vector. […] The membrane was washed four times with the same buffer which had been ice cooled, and then measured for radioactivity on a liquid scintillation counter.

pancreatic islets = assay: Insulin secretion experiment, pancreatic islets of wild-type and Epac2-lacking mice; assay type: cell-based, mouse
Procedure: Mouse pancreatic beta-cells were isolated from wild-type mice (C57BL/6) or Epac2-lacking mice, and cultured for two days. The mouse pancreatic beta-cells were let stand in HEPES-KRB buffer containing 2.8 mM glucose for 30 minutes. The cells then were dispensed to […] in such a manner that five pancreatic islets of a like size were contained in each well, and cultured for 15 minutes in 100 micro L HEPES-KRB buffer containing an agent of interest and 2.8 mM glucose. The amount of insulin released in the medium and that in the cells were measured using an insulin assay kit (Medical Biological Laboratories Co. Ltd.). The amount of secreted insulin was normalized by the amount of insulin in the cells.
The effect of SU agents on insulin secretion via Epac2 was examined in an insulin secretion experiment using pancreatic islets. First, pancreatic islets obtained from wild-type mice and Epac2-lacking mice were stimulated with glucose, and the amount of secreted insulin was determined.

[6] = clinical report (Non-patent document 19); cited from earlier work
[7] = Oral glucose tolerance test in wild-type and Epac2-lacking mice; assay type: in vivo, mouse; details: oral 1.5 g/kg glucose plus 100 mg/kg tolbutamide
Procedure: Peripheral blood was sampled at a predetermined point of time, and serum insulin concentration and blood glucose concentration were measured with an ELISA kit (mftd. by Morinaga) and Antisense III glucose analysis device (Bayer Yakuhin, Ltd.), respectively.
Next, glucose was administered together with tolbutamide, and measurement was conducted in the same manner.

[8] = concentration-dependent, 15 minutes, 2.8 mM glucose

SMILES | activation of Rap1 (Rap1 [1]) | change in R/R0 value (FRET) [2] | amount of GTP-bound Rap1 (activation of Rap1) (Rap1 [3]; [8]) | activation of Rap1 (Rap1 [4]) | change in R/R0 value (FRET) [5] | amount of GTP-bound Rap1 (activation of Rap1) (Rap1 [3]; concentrations higher than 100 nM) | IC50 (mouse Epac2) [µM] | insulin secretion, islets from Epac2-lacking mice compared with wild-type mice (pancreatic islets; 10 nM) | glycemic control in a patient with neonatal diabetes [6] | blood glucose concentration, Epac2-lacking mice compared with wild-type mice [7] | serum insulin concentration, Epac2-lacking mice compared with wild-type mice [7] | insulin secretion, islets from Epac2-lacking mice compared with wild-type mice (pancreatic islets; 100 nM)
CC(=O)c1ccc(S(=O)(=O)NC(=O)NC2CCCCC2)cc1 [acetohexamide] | found to activate Rap1 | decrease in R/R0 | increase the amount of GTP-bound Rap1 | activated no Rapt |  |  |  |  |  |  |  | 
CCCNC(=O)NS(=O)(=O)c1ccc(Cl)cc1 [chlorpropamide] | found to activate Rap1 | decrease in R/R0 | increase the amount of GTP-bound Rap1 | activated no Rapt |  |  |  |  |  |  |  | 
COc1ccc(Cl)cc1C(=O)NCCc1ccc(S(=O)(=O)NC(=O)NC2CCCCC2)cc1 [glibenclamide] | found to activate Rap1 | decrease in R/R0 | increase the amount of GTP-bound Rap1 | activated no Rapt | concentration-dependent decrease in R/R0 value | failed to increase it | 0.025 | markedly low insulin secretion |  |  |  | 
Cc1ccc(S(=O)(=O)NC(=O)NN2CC3CCCC3C2)cc1 (stereo not shown) [gliclazide] |  | no change in R/R0 value | no effect on the amount of GTP-bound Rap1 |  |  |  |  | no significant difference | not effective |  |  | 
Cc1cnc(C(=O)NCCc2ccc(S(=O)(=O)NC(=O)NC3CCCCC3)cc2)cn1 [glipizide] | found to activate Rap1 | decrease in R/R0 | increase the amount of GTP-bound Rap1 | activated no Rapt |  |  |  |  |  |  |  | 
CC(C)[C@H]1CC[C@H](C(=O)N[C@H](Cc2ccccc2)C(=O)O)CC1 [nateglinide] | did not activate Rap1 | no change in R/R0 value |  |  |  |  |  |  |  |  |  | 
CCCCNC(=O)NS(=O)(=O)c1ccc(C)cc1 [tolbutamide] | found to activate Rap1 | decrease in R/R0 |  | activated no Rapt | concentration-dependent decrease in R/R0 value |  | 240 |  |  | high in the Epac2-lacking mice compared with the wild-type mice | low in the Epac2-lacking mice compared with the wild-type mice | markedly low insulin secretion
